# ChEMBL document CHEMBL1629583, “Establishment of in vitro susceptibility testing methodologies and comparative activities of piperacillin in combination with the penem {beta}-lactamase inhibitor BLI-489” (2009)
# Experiments:
# Format in all cases: functional
# Streptococcus pneumoniae [1] = experiment: Antimicrobial activity against penicillin-intermediate Streptococcus pneumoniae clinical isolate after 18 to 22 hrs by broth microdilution method
# Staphylococcus aureus [2] = experiment: Antimicrobial activity against methicillin-resistant Staphylococcus aureus clinical isolate after 18 to 22 hrs by broth microdilution method
# Enterococcus faecalis [3] = experiment: Antimicrobial activity against vancomycin-resistant Enterococcus faecalis clinical isolate after 18 to 22 hrs by broth microdilution method
# Streptococcus agalactiae = experiment: Antimicrobial activity against Streptococcus agalactiae clinical isolate after 18 to 22 hrs by broth microdilution method
# Enterococcus hirae = experiment: Antimicrobial activity against Enterococcus hirae clinical isolate after 18 to 22 hrs by broth microdilution method
# Enterococcus durans = experiment: Antimicrobial activity against Enterococcus durans clinical isolate after 18 to 22 hrs by broth microdilution method
# Streptococcus pneumoniae [4] = experiment: Antimicrobial activity against penicillin-resistant Streptococcus pneumoniae clinical isolate after 18 to 22 hrs by broth microdilution method
# Enterococcus avium = experiment: Antimicrobial activity against Enterococcus avium clinical isolate after 18 to 22 hrs by broth microdilution method
# Enterococcus gallinarum = experiment: Antimicrobial activity against Enterococcus gallinarum clinical isolate after 18 to 22 hrs by broth microdilution method
# [5] = test system: Staphylococcus epidermidis; experiment: Antimicrobial activity against methicillin-resistant Staphylococcus epidermidis clinical isolate after 18 to 22 hrs by broth microdilution method
# Enterococcus faecium [6] = experiment: Antimicrobial activity against Enterococcus faecium clinical isolate after 18 to 22 hrs by broth microdilution method
# Streptococcus pyogenes = experiment: Antimicrobial activity against Streptococcus pyogenes clinical isolate after 18 to 22 hrs by broth microdilution method
# Staphylococcus aureus [7] = experiment: Antimicrobial activity against methicillin-susceptible Staphylococcus aureus clinical isolate after 18 to 22 hrs by broth microdilution method
# [8] = test system: Staphylococcus haemolyticus; experiment: Antimicrobial activity against Staphylococcus haemolyticus clinical isolate after 18 to 22 hrs by broth microdilution method
# Streptococcus pneumoniae [9] = experiment: Antimicrobial activity against penicillin-susceptible Streptococcus pneumoniae clinical isolate after 18 to 22 hrs by broth microdilution method
# Enterococcus faecium [10] = experiment: Antimicrobial activity against vancomycin-resistant Enterococcus faecium clinical isolate after 18 to 22 hrs by broth microdilution method
# [11] = test system: Staphylococcus epidermidis; experiment: Antimicrobial activity against methicillin-susceptible Staphylococcus epidermidis clinical isolate after 18 to 22 hrs by broth microdilution method
# Enterococcus faecalis [12] = experiment: Antimicrobial activity against Enterococcus faecalis clinical isolate after 18 to 22 hrs by broth microdilution method
# [13] = test system: Enterococcus casseliflavus; experiment: Antimicrobial activity against Enterococcus casseliflavus clinical isolate after 18 to 22 hrs by broth microdilution method
# Serratia marcescens [14] = experiment: Antimicrobial activity against Serratia marcescens clinical isolate after 18 to 22 hrs by broth microdilution method
# Escherichia coli [15] = experiment: Antimicrobial activity against class A extended spectrum beta-lactamase- producing Escherichia coli clinical isolate after 18 to 22 hrs by broth microdilution method
# [16] = test system: Acinetobacter calcoaceticus; experiment: Antimicrobial activity against Acinetobacter calcoaceticus clinical isolate after 18 to 22 hrs by broth microdilution method
# Enterobacter cloacae [17] = experiment: Antimicrobial activity against Enterobacter cloacae clinical isolate after 18 to 22 hrs by broth microdilution method
# Klebsiella aerogenes [18] = experiment: Antimicrobial activity against AmpC beta-lactamase-producing Enterobacter aerogenes clinical isolate after 18 to 22 hrs by broth microdilution method
# Klebsiella pneumoniae [19] = experiment: Antimicrobial activity against class A extended spectrum beta-lactamase- producing Klebsiella pneumoniae clinical isolate after 18 to 22 hrs by broth microdilution method
# Serratia marcescens [20] = experiment: Antimicrobial activity against AmpC beta-lactamase-producing Serratia marcescens clinical isolate after 18 to 22 hrs by broth microdilution method
# Acinetobacter johnsonii = experiment: Antimicrobial activity against Acinetobacter johnsonii clinical isolate after 18 to 22 hrs by broth microdilution method
# Burkholderia cepacia = experiment: Antimicrobial activity against Burkholderia cepacia clinical isolate after 18 to 22 hrs by broth microdilution method
# Moraxella catarrhalis = experiment: Antimicrobial activity against Moraxella catarrhalis clinical isolate after 18 to 22 hrs by broth microdilution method
# Citrobacter freundii [21] = experiment: Antimicrobial activity against AmpC beta-lactamase-producing Citrobacter freundii clinical isolate after 18 to 22 hrs by broth microdilution method
# Enterobacter cloacae [22] = experiment: Antimicrobial activity against AmpC beta-lactamase-producing Enterobacter cloacae clinical isolate after 18 to 22 hrs by broth microdilution method
# Providencia rettgeri = experiment: Antimicrobial activity against Providencia rettgeri clinical isolate after 18 to 22 hrs by broth microdilution method
# Citrobacter koseri = experiment: Antimicrobial activity against Citrobacter koseri clinical isolate after 18 to 22 hrs by broth microdilution method
# Klebsiella pneumoniae [23] = experiment: Antimicrobial activity against Klebsiella pneumoniae clinical isolate after 18 to 22 hrs by broth microdilution method
# Klebsiella oxytoca = experiment: Antimicrobial activity against Klebsiella oxytoca clinical isolate after 18 to 22 hrs by broth microdilution method
# Acinetobacter lwoffii = experiment: Antimicrobial activity against Acinetobacter lwoffii clinical isolate after 18 to 22 hrs by broth microdilution method
# Pseudomonas aeruginosa = experiment: Antimicrobial activity against Pseudomonas aeruginosa clinical isolate after 18 to 22 hrs by broth microdilution method
# Morganella morganii = experiment: Antimicrobial activity against Morganella morganii clinical isolate after 18 to 22 hrs by broth microdilution method
# Escherichia coli [24] = experiment: Antimicrobial activity against Escherichia coli clinical isolate after 18 to 22 hrs by broth microdilution method
# Escherichia coli [25] = experiment: Antimicrobial activity against AmpC beta-lactamase-producing Escherichia coli clinical isolate after 18 to 22 hrs by broth microdilution method
# Proteus vulgaris = experiment: Antimicrobial activity against Proteus vulgaris clinical isolate after 18 to 22 hrs by broth microdilution method
# [26] = test system: Stenotrophomonas maltophilia; experiment: Antimicrobial activity against Stenotrophomonas maltophilia clinical isolate after 18 to 22 hrs by broth microdilution method
# Acinetobacter junii = experiment: Antimicrobial activity against Acinetobacter junii clinical isolate after 18 to 22 hrs by broth microdilution method
# Klebsiella pneumoniae [27] = experiment: Antimicrobial activity against AmpC- producing Klebsiella pneumoniae clinical isolate after 18 to 22 hrs by broth microdilution method
# Haemophilus influenzae [28] = experiment: Antimicrobial activity against beta-lactamase-negative Haemophilus influenzae clinical isolate after 18 to 22 hrs by broth microdilution method
# Escherichia coli [29] = experiment: Antimicrobial activity against class A extended spectrum beta-lactamase- and class D OXA- producing Escherichia coli clinical isolate after 18 to 22 hrs by broth microdilution method
# Acinetobacter baumannii = experiment: Antimicrobial activity against Acinetobacter baumannii clinical isolate after 18 to 22 hrs by broth microdilution method
# Proteus mirabilis = experiment: Antimicrobial activity against Proteus mirabilis clinical isolate after 18 to 22 hrs by broth microdilution method
# Haemophilus influenzae [30] = experiment: Antimicrobial activity against beta-lactamase-producing Haemophilus influenzae clinical isolate after 18 to 22 hrs by broth microdilution method
# [31] = test system: Haemophilus parainfluenzae; experiment: Antimicrobial activity against Haemophilus parainfluenzae clinical isolate after 18 to 22 hrs by broth microdilution method
# [32] = test system: Acinetobacter haemolyticus; experiment: Antimicrobial activity against Acinetobacter haemolyticus clinical isolate after 18 to 22 hrs by broth microdilution method
# Citrobacter freundii [33] = experiment: Antimicrobial activity against Citrobacter freundii clinical isolate after 18 to 22 hrs by broth microdilution method
# Klebsiella pneumoniae [34] = experiment: Antimicrobial activity against class A extended spectrum beta-lactamase- and class D OXA- producing Klebsiella pneumoniae clinical isolate after 18 to 22 hrs by broth microdilution method
# Providencia stuartii = experiment: Antimicrobial activity against Providencia stuartii clinical isolate after 18 to 22 hrs by broth microdilution method
# Klebsiella aerogenes [35] = experiment: Antimicrobial activity against Enterobacter aerogenes clinical isolate after 18 to 22 hrs by broth microdilution method
structure (smiles),measurement,setting,value
CC(=O)NC[C@H]1CN(c2ccc(N3CCOCC3)c(F)c2)C(=O)O1 [LINEZOLID],MIC50,Streptococcus pneumoniae [1],0.5 µg/mL
same,MIC90,Streptococcus pneumoniae [1],1 µg/mL
same,MIC50,Staphylococcus aureus [2],2 µg/mL
same,MIC90,Staphylococcus aureus [2],4 µg/mL
same,MIC50,Enterococcus faecalis [3],2 µg/mL
same,MIC90,Enterococcus faecalis [3],2 µg/mL
same,MIC50,Streptococcus agalactiae,1 µg/mL
same,MIC90,Streptococcus agalactiae,2 µg/mL
same,MIC50,Enterococcus hirae,2 µg/mL
same,MIC90,Enterococcus hirae,2 µg/mL
same,MIC50,Enterococcus durans,2 µg/mL
same,MIC90,Enterococcus durans,2 µg/mL
same,MIC50,Streptococcus pneumoniae [4],1 µg/mL
same,MIC90,Streptococcus pneumoniae [4],1 µg/mL
same,MIC50,Enterococcus avium,2 µg/mL
same,MIC90,Enterococcus avium,2 µg/mL
same,MIC50,Enterococcus gallinarum,2 µg/mL
same,MIC90,Enterococcus gallinarum,2 µg/mL
same,MIC,[5],1 µg/mL
same,MIC50,[5],1 µg/mL
same,MIC90,[5],2 µg/mL
same,MIC50,Enterococcus faecium [6],2 µg/mL
same,MIC90,Enterococcus faecium [6],2 µg/mL
same,MIC50,Streptococcus pyogenes,1 µg/mL
same,MIC90,Streptococcus pyogenes,1 µg/mL
same,MIC50,Staphylococcus aureus [7],4 µg/mL
same,MIC90,Staphylococcus aureus [7],4 µg/mL
same,MIC,[8],1 µg/mL
same,MIC50,[8],1 µg/mL
same,MIC90,[8],2 µg/mL
same,MIC50,Streptococcus pneumoniae [9],0.5 µg/mL
same,MIC90,Streptococcus pneumoniae [9],1 µg/mL
same,MIC50,Enterococcus faecium [10],2 µg/mL
same,MIC90,Enterococcus faecium [10],2 µg/mL
same,MIC,[11],1 µg/mL
same,MIC50,[11],1 µg/mL
same,MIC90,[11],2 µg/mL
same,MIC50,Enterococcus faecalis [12],2 µg/mL
same,MIC90,Enterococcus faecalis [12],2 µg/mL
same,MIC50,[13],2 µg/mL
same,MIC90,[13],2 µg/mL
CO/N=C(\C(=O)N[C@@H]1C(=O)N2C(C(=O)O)=C(CSc3nc(=O)c(O)nn3C)CS[C@H]12)c1csc(N)n1 [CEFTRIAXONE],MIC50,Serratia marcescens [14],0.5 µg/mL
same,MIC90,Serratia marcescens [14],> 32 µg/mL
same,MIC50,Escherichia coli [15],> 32 µg/mL
same,MIC90,Escherichia coli [15],> 32 µg/mL
same,MIC50,[16],> 32 µg/mL
same,MIC90,[16],> 32 µg/mL
same,MIC50,Enterobacter cloacae [17],0.5 µg/mL
same,MIC90,Enterobacter cloacae [17],> 32 µg/mL
same,MIC50,Klebsiella aerogenes [18],32 µg/mL
same,MIC90,Klebsiella aerogenes [18],> 32 µg/mL
same,MIC50,Klebsiella pneumoniae [19],> 32 µg/mL
same,MIC90,Klebsiella pneumoniae [19],> 32 µg/mL
same,MIC50,Serratia marcescens [20],32 µg/mL
same,MIC90,Serratia marcescens [20],> 32 µg/mL
same,MIC50,Acinetobacter johnsonii,2 µg/mL
same,MIC90,Acinetobacter johnsonii,8 µg/mL
same,MIC50,Burkholderia cepacia,32 µg/mL
same,MIC90,Burkholderia cepacia,> 32 µg/mL
same,MIC,Moraxella catarrhalis,≤ 0.03 µg/mL
same,MIC50,Moraxella catarrhalis,≤ 0.03 µg/mL
same,MIC90,Moraxella catarrhalis,0.5 µg/mL
same,MIC50,Citrobacter freundii [21],32 µg/mL
same,MIC90,Citrobacter freundii [21],> 32 µg/mL
same,MIC50,Enterobacter cloacae [22],32 µg/mL
same,MIC90,Enterobacter cloacae [22],> 32 µg/mL
same,MIC50,Providencia rettgeri,0.06 µg/mL
same,MIC90,Providencia rettgeri,> 32 µg/mL
same,MIC50,Citrobacter koseri,0.06 µg/mL
same,MIC90,Citrobacter koseri,0.25 µg/mL
same,MIC50,Klebsiella pneumoniae [23],0.06 µg/mL
same,MIC90,Klebsiella pneumoniae [23],0.12 µg/mL
same,MIC50,Klebsiella oxytoca,0.06 µg/mL
same,MIC90,Klebsiella oxytoca,0.12 µg/mL
same,MIC50,Acinetobacter lwoffii,2 µg/mL
same,MIC90,Acinetobacter lwoffii,8 µg/mL
same,MIC50,Pseudomonas aeruginosa,> 32 µg/mL
same,MIC90,Pseudomonas aeruginosa,> 32 µg/mL
same,MIC50,Morganella morganii,0.06 µg/mL
same,MIC90,Morganella morganii,8 µg/mL
same,MIC50,Escherichia coli [24],0.06 µg/mL
same,MIC90,Escherichia coli [24],0.06 µg/mL
same,MIC50,Escherichia coli [25],> 32 µg/mL
same,MIC90,Escherichia coli [25],> 32 µg/mL
same,MIC50,Proteus vulgaris,32 µg/mL
same,MIC90,Proteus vulgaris,> 32 µg/mL
same,MIC,[26],> 32 µg/mL
same,MIC50,[26],> 32 µg/mL
same,MIC90,[26],> 32 µg/mL
same,MIC50,Acinetobacter junii,2 µg/mL
same,MIC90,Acinetobacter junii,8 µg/mL
same,MIC50,Klebsiella pneumoniae [27],32 µg/mL
same,MIC90,Klebsiella pneumoniae [27],> 32 µg/mL
same,MIC,Haemophilus influenzae [28],≤ 0.03 µg/mL
same,MIC50,Haemophilus influenzae [28],≤ 0.03 µg/mL
same,MIC90,Haemophilus influenzae [28],≤ 0.03 µg/mL
same,MIC,Escherichia coli [29],> 32 µg/mL
same,MIC50,Escherichia coli [29],> 32 µg/mL
same,MIC90,Escherichia coli [29],> 32 µg/mL
same,MIC50,Acinetobacter baumannii,> 32 µg/mL
same,MIC90,Acinetobacter baumannii,> 32 µg/mL
same,MIC50,Proteus mirabilis,≤ 0.03 µg/mL
same,MIC90,Proteus mirabilis,> 32 µg/mL
same,MIC,Haemophilus influenzae [30],≤ 0.03 µg/mL
same,MIC50,Haemophilus influenzae [30],≤ 0.03 µg/mL
same,MIC90,Haemophilus influenzae [30],≤ 0.03 µg/mL
same,MIC,[31],≤ 0.03 µg/mL
same,MIC50,[31],≤ 0.03 µg/mL
same,MIC90,[31],≤ 0.03 µg/mL
same,MIC50,[32],2 µg/mL
same,MIC90,[32],8 µg/mL
same,MIC50,Citrobacter freundii [33],0.5 µg/mL
same,MIC90,Citrobacter freundii [33],> 32 µg/mL
same,MIC50,Klebsiella pneumoniae [34],> 32 µg/mL
same,MIC90,Klebsiella pneumoniae [34],> 32 µg/mL
same,MIC50,Providencia stuartii,0.06 µg/mL
same,MIC90,Providencia stuartii,> 32 µg/mL
same,MIC50,Klebsiella aerogenes [35],0.12 µg/mL
same,MIC90,Klebsiella aerogenes [35],> 32 µg/mL
